Reference: paper PMC13099959, “Context-dependent activation and evolutionary buffering of a mating pheromone in fission yeast” (Communications Biology, 2026)
No end group written: not given here. Far = not defined here

Legend:
[1] = system: S. pombe h90 strains (mating and sporulation); experiment: Frequency of zygote formation (microscopy-based mating frequency); assay type: cell-based, Schizosaccharomyces pombe
Experimental: Cells were pre-cultured on YEA medium at 30 °C overnight, washed with 1 mL sterilized water (10,000 rpm, 3 min, 4 °C), and adjusted to an OD600 of 5.0. Aliquots (30 µL) were spotted on YEA, MEA, SSA, or fruit/vegetable juice media (grape, orange, apple, vegetable) and incubated at 30 °C for 48 h. After 48 h, cells were harvested and examined using a differential interference contrast microscopy (BX53, Olympus, Tokyo, Japan) with the UPlanSApo 60×/1.35 NA oil-immersion objective, ORCA-spark camera (Hamamatsu Photonics, Hamamatsu, Japan), and CellSens software. Nine random fields were imaged per plate. Mating rates were calculated as in Seike et al.[11] using the equation: Mating rate(%)=2Z+2A+0.5S×100/V+2Z+2A+0.5S where V, Z, A, and S represent vegetative cells, zygotes, asci, and spores, respectively. Data are reported as the mean ±s.d.
All statistical analyses treated biological replicates (n = 3) as the unit of replication. Unless stated otherwise, values are reported as mean ± s.d., tests were two-sided, and no data were excluded. For two-group comparisons we used Welch’s t test (unequal variances). Significance in figures is denoted as p < 0.05, p < 0.01, and p < 0.001. […] For microscopy-based mating assays, nine random fields were scored per plate; field values were averaged within each biological replicate to avoid pseudoreplication. […] Analyses were performed in Python (pandas, numpy, math); plots were generated using matplotlib and seaborn.

M-factor receptor Map3 = target: T1, M-factor receptor Map3 (Schizosaccharomyces pombe, UniProt P31397); experiment: In vitro M-factor activity assay using a map4 promoter–lacZ fusion (β-galactosidase); assay type: cell-based; conditions: synthetic peptide 10 µM, map4-lacZ reporter strain, nitrogen-free SSL medium, pH 5.5 or 7.0
T1 construct: Tester strain TS472 was inoculated into 5 mL SSL + N medium; endogenous in cells; host or cells: S. pombe tester strain TS472 (map4 promoter-lacZ reporter)
T1 sequence (P31397 1-365): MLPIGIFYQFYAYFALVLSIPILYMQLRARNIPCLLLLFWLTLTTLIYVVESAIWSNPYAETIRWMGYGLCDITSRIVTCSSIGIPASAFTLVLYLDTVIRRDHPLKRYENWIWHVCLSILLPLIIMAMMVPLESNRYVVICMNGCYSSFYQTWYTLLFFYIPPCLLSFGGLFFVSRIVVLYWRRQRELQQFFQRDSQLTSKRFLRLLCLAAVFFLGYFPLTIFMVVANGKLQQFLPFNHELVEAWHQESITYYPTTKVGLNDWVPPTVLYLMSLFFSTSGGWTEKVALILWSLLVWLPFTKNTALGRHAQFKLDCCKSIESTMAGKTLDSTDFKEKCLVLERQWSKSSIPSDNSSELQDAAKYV
Experimental: β-galactosidase activity was measured to evaluate activation of the M-factor receptor Map3 using synthetic M-factor peptides, following a previously described method[22]. Tester strain TS472 was inoculated into 5 mL SSL + N medium (SSA without agar) at an initial OD600 of 0.1 and cultured at 30 °C for 20 h. Cells were washed three times with SSL–N medium (lacking 0.5 g/L aspartic acid) and resuspended in SSL–N at varying pH values (adjusted with HCl or NaOH) to OD600 = 2.0.
Thereafter, cells were washed and resuspended in Z-buffer (60 mM Na2HPO4, 40 mM NaH2PO4, 10 mM KCl, 1 mM MgSO4·7H2O, and 50 mM β-mercaptoethanol; pH 7.0) to OD600 = 5.0. For each replicate (n = 3), 200 µL of cell suspension was mixed with 600 µL Z-buffer, 15 µL chloroform, and 12 µL 0.1% SDS, vortexed, and incubated at 30 °C for 5 min. Reactions were initiated with 160 µL o-nitrophenyl-β-D-galactopyranoside (ONPG; 4 mg/mL in Z-buffer), and both start and end times were recorded. After incubation at 30 °C, reactions were terminated with 400 µL 1 M Na2CO3, centrifuged (13,000 rpm, 3 min, 4 °C), and 200 µL supernatant was diluted into 1 mL 0.33 M Na2CO3. Absorbance at 420 nm (OD420) was measured to calculate Miller units. Miller units=(OD420×1000)/(V×t×OD600) where V is reaction volume (mL) and t is reaction time (minute). Data are reported as the mean ± s.d. […]

Substance | Mating competence at pH 5.5 ([1]; SSA pH 5.5, 48 h) | Cells forming mature asci ([1]; SSA pH 7.5–8.5, 48 h) | Effect on mating in background with intact mfm2+ and mfm3+ genes ([1]; mfm1-P36H in h90 mfm2+ mfm3+ background, SSA pH 5.5 and pH 7.0) | pH dependence of β-galactosidase activity (Map3 activation) (M-factor receptor Map3)
P6H: M-factor single-amino acid variant; also tested as synthetic peptide (Eurofins) (YTPKVHYMC(Far)-OMe; ends and bridges not checked; UniProt P34068 31-39, looked up, variant P36H) | virtually sterile | approximately 50% | does not exert a dominant-negative effect on mating | 
T2Q: M-factor single-amino acid variant; also tested as synthetic peptide (Eurofins) (YQPKVPYMC(Far)-OMe; ends and bridges not checked; UniProt P34068 31-39, looked up, variant T32Q) |  |  |  | higher activity at acidic pH
